Experimental data published in ChEMBL document CHEMBL1201861, “Genomics of Drug Sensitity in Cancer screening data, Wellcome Trust Sanger Institute”.

Experiments:
Experiment in all cases: cells
Type in all cases: functional, cell-based, Homo sapiens
UACC-257 = details: Homo sapiens, UACC-257
Description: SANGER: Inhibition of human UACC-257 cell growth in a cell viability assay.

EKVX = details: Homo sapiens, EKVX;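 further: growth inhibition of human EKVX cells, read out with a cell viability assay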
Description: SANGER: Inhibition of human EKVX cell growth in a cell viability assay.

CP66-MEL = details: Homo sapiens, CP66-MEL;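 further: growth inhibition of CP66-MEL cells determined in a cell viability assay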
Description: SANGER: Inhibition of human CP66-MEL cell growth in a cell viability assay.

IST-MEL1 = details: Homo sapiens, IST-MEL1;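 further: growth inhibition of the cell line, read out with a cell viability assay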
Description: SANGER: Inhibition of human IST-MEL1 cell growth in a cell viability assay.

HT-144 = details: Homo sapiens, HT-144
Description: SANGER: Inhibition of human HT-144 cell growth in a cell viability assay.

ES1 = details: Homo sapiens, ES1;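 further: growth inhibition of ES1 cells, read out with a cell viability assay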
Description: SANGER: Inhibition of human ES1 cell growth in a cell viability assay.

SCC-15 = details: Homo sapiens, SCC-15;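 further: growth inhibition of SCC-15 cells, read out with a cell viability assay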
Description: SANGER: Inhibition of human SCC-15 cell growth in a cell viability assay.

VA-ES-BJ = details: Homo sapiens, VA-ES-BJ;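 further: growth inhibition of the VA-ES-BJ cell line, read out by a cell viability assay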
Description: SANGER: Inhibition of human VA-ES-BJ cell growth in a cell viability assay.

NB6 = details: Homo sapiens, NB6
Description: SANGER: Inhibition of human NB6 cell growth in a cell viability assay.

HEL = details: Homo sapiens, HEL;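 further: growth inhibition of HEL cells, read out with a cell viability assay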
Description: SANGER: Inhibition of human HEL cell growth in a cell viability assay.

HOP-62 = details: Homo sapiens, HOP-62;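 further: cell growth inhibition determined with a viability assay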
Description: SANGER: Inhibition of human HOP-62 cell growth in a cell viability assay.

NTERA-2-cl-D1 = details: Homo sapiens, NTERA-2-cl-D1;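 further: inhibition of cell growth, measured with a cell viability assay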
Description: SANGER: Inhibition of human NTERA-S-cl-D1 cell growth in a cell viability assay.

NB12 = details: Homo sapiens, NB12;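 further: growth inhibition of human NB12 cells, read out by a cell viability assay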
Description: SANGER: Inhibition of human NB12 cell growth in a cell viability assay.

KNS-81-FD = details: Homo sapiens, KNS-81-FD;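 further: growth inhibition of KNS-81-FD cells, read out with a cell viability assay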
Description: SANGER: Inhibition of human KNS-81-FD cell growth in a cell viability assay.

NB5 = details: Homo sapiens, NB5;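 further: growth inhibition of NB5 cells, read out as cell viability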
Description: SANGER: Inhibition of human NB5 cell growth in a cell viability assay.

GB-1 = details: Homo sapiens, GB-1;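 further: growth of GB-1 cells judged by a viability assay, IC50 marks the concentration inhibiting growth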
Description: SANGER: Inhibition of human GB-1 cell growth in a cell viability assay.

TGBC1TKB = details: Homo sapiens, TGBC1TKB;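 further: growth inhibition of TGBC1TKB cells, read out by a cell viability assay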
Description: SANGER: Inhibition of human TGBC1TKB cell growth in a cell viability assay.

D-247MG = details: Homo sapiens, D-247MG
Description: SANGER: Inhibition of human D-247MG cell growth in a cell viability assay.

NCI-H747 = details: Homo sapiens, NCI-H747;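 further: growth inhibition of human NCI-H747 cells, read out by a cell viability assay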
Description: SANGER: Inhibition of human NCI-H747 cell growth in a cell viability assay.

SW 962 = details: Homo sapiens, SW 962;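 further: growth inhibition of human SW962 cells, read out by a cell viability assay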
Description: SANGER: Inhibition of human SW962 cell growth in a cell viability assay.

SK-UT-1 = details: Homo sapiens, SK-UT-1;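 further: growth inhibition of SK-UT-1 cells, measured by a cell viability assay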
Description: SANGER: Inhibition of human SK-UT-1 cell growth in a cell viability assay.

MSTO-211H = details: Homo sapiens, MSTO-211H
Description: SANGER: Inhibition of human MSTO-211H cell growth in a cell viability assay.

SK-N-FI = details: Homo sapiens, SK-N-FI;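 further: cell viability assay measuring growth inhibition of human SK-N-FI cells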
Description: SANGER: Inhibition of human SK-N-FI cell growth in a cell viability assay.

NB69 = details: Homo sapiens, NB69;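 further: growth inhibition of NB69 cells, determined by a cell viability assay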
Description: SANGER: Inhibition of human NB69 cell growth in a cell viability assay.

IA-LM = details: Homo sapiens, IA-LM;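 further: cell viability assay measuring growth inhibition of human IA-LM cells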
Description: SANGER: Inhibition of human IA-LM cell growth in a cell viability assay.

AM-38 = details: Homo sapiens, AM-38;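 further: growth inhibition of AM-38 cells of human origin, read out by a cell viability assay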
Description: SANGER: Inhibition of human AM-38 cell growth in a cell viability assay.

SK-N-DZ = details: Homo sapiens, SK-N-DZ;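 further: growth inhibition of the cancer cell line, read out through a viability assay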
Description: SANGER: Inhibition of human SK-N-DZ cell growth in a cell viability assay.

HD-MY-Z = details: Homo sapiens, HD-MY-Z;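 further: growth inhibition of HD-MY-Z cells, read out with a cell viability assay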
Description: SANGER: Inhibition of human HD-MY-Z cell growth in a cell viability assay.

OCUB-M = details: Homo sapiens, OCUB-M;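 further: growth inhibition of the cancer cell line, read out through a cell viability assay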
Description: SANGER: Inhibition of human OCUB-M cell growth in a cell viability assay.

HCC1187 = details: Homo sapiens, HCC1187;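 further: growth inhibition of HCC1187 cells, read out with a cell viability assay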
Description: SANGER: Inhibition of human HCC1187 cell growth in a cell viability assay.

A3-KAW = details: Homo sapiens, A3-KAW;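 further: growth inhibition of human A3-KAW cells, read out with a cell viability assay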
Description: SANGER: Inhibition of human A3-KAW cell growth in a cell viability assay.

LU-139 = details: Homo sapiens, LU-139
Description: SANGER: Inhibition of human LU-139 cell growth in a cell viability assay.

NCI-H1304 = details: Homo sapiens, NCI-H1304;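 further: growth inhibition of the cancer cell line, measured in a cell viability assay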
Description: SANGER: Inhibition of human NCI-H1304 cell growth in a cell viability assay.

TGW = details: Homo sapiens, TGW;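 further: growth inhibition of human TGW cells, read out with a cell viability assay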
Description: SANGER: Inhibition of human TGW cell growth in a cell viability assay.

NCI-H209 = details: Homo sapiens, NCI-H209;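 further: growth inhibition of human NCI-H209 cells, measured by a cell viability assay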
Description: SANGER: Inhibition of human NCI-H209 cell growth in a cell viability assay.

SNU-5 = details: Homo sapiens, SNU-5;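 further: cell viability readout used to measure growth inhibition in human NCI-SNU-5 cells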
Description: SANGER: Inhibition of human NCI-SNU-5 cell growth in a cell viability assay.

COR-L88 = details: Homo sapiens, COR-L88;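 further: growth inhibition of COR-L88 cells, read out with a cell viability assay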
Description: SANGER: Inhibition of human COR-L88 cell growth in a cell viability assay.

DOHH-2 = details: Homo sapiens, DOHH-2;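 further: growth inhibition of human DOHH-2 cells, read out with a cell viability assay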
Description: SANGER: Inhibition of human DOHH-2 cell growth in a cell viability assay.

DMS-79 = details: Homo sapiens, DMS-79;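 further: growth inhibition measured with a cell viability assay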
Description: SANGER: Inhibition of human DMS-79 cell growth in a cell viability assay.

HCC2157 = details: Homo sapiens, HCC2157;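 further: growth inhibition of the cancer cell line, read out as cell viability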
Description: SANGER: Inhibition of human HCC2157 cell growth in a cell viability assay.

ATN-1 = details: Homo sapiens, ATN-1;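 further: growth inhibition of human ATN-1 cells, read out with a cell viability assay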
Description: SANGER: Inhibition of human ATN-1 cell growth in a cell viability assay.

NCI-H69 = details: Homo sapiens, NCI-H69;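 further: growth inhibition of the cell line, read out with a cell viability assay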
Description: SANGER: Inhibition of human NCI-H69 cell growth in a cell viability assay.

C8166 = details: Homo sapiens, C8166;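 further: growth inhibition of human C8166 cells measured by a cell viability assay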
Description: SANGER: Inhibition of human C8166 cell growth in a cell viability assay.

CTV-1 = details: Homo sapiens, CTV-1;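 further: growth inhibition of the cell line, read out with a cell viability assay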
Description: SANGER: Inhibition of human CTV-1 cell growth in a cell viability assay.

EW-24 = details: Homo sapiens, EW-24;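 further: human EW-24 cancer cell line, growth inhibition read out via a cell viability assay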
Description: SANGER: Inhibition of human EW-24 cell growth in a cell viability assay.

L-363 = details: Homo sapiens, L-363
Description: SANGER: Inhibition of human L-363 cell growth in a cell viability assay.

MS-1 = details: Homo sapiens, MS-1;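 further: growth inhibition of MS-1 cells, read out by cell viability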
Description: SANGER: Inhibition of human MS-1 cell growth in a cell viability assay.

NCI-H1092 = details: Homo sapiens, NCI-H1092;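 further: cell growth inhibition measured with a cell viability assay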
Description: SANGER: Inhibition of human NCI-H1092 cell growth in a cell viability assay.

NCI-H526 = details: Homo sapiens, NCI-H526;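 further: growth inhibition of the human NCI-H526 cell line, measured by a cell viability assay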
Description: SANGER: Inhibition of human NCI-H526 cell growth in a cell viability assay.

CC(C)c1ccccc1Cc1cc(C(=O)Nc2ccc(S(=O)(=O)c3ccccc3C(C)(C)C)cc2)c(O)c(O)c1O
IC50 (UACC-257): 0.552 µM | IC50 (EKVX): 7.14 µM | IC50 (CP66-MEL): 1.2 µM | IC50 (IST-MEL1): 0.228 µM | IC50 (HT-144): 0.152 µM | IC50 (ES1): 0.13 µM | IC50 (SCC-15): 0.223 µM | IC50 (VA-ES-BJ): 0.0396 µM | IC50 (NB6): 2.49 µM | IC50 (HEL): 0.522 µM | IC50 (HOP-62): 0.365 µM | IC50 (NTERA-2-cl-D1): 0.167 µM | IC50 (NB12): 0.136 µM | IC50 (KNS-81-FD): 0.248 µM | IC50 (NB5): 0.423 µM | IC50 (GB-1): 0.0987 µM | IC50 (TGBC1TKB): 1.13 µM | IC50 (D-247MG): 0.936 µM | IC50 (NCI-H747): 0.13 µM | IC50 (SW 962): 0.378 µM | IC50 (SK-UT-1): 0.0287 µM | IC50 (MSTO-211H): 0.789 µM | IC50 (SK-N-FI): 0.328 µM | IC50 (NB69): 0.877 µM | IC50 (IA-LM): 1.56 µM | IC50 (AM-38): 0.841 µM | IC50 (SK-N-DZ): 0.207 µM | IC50 (HD-MY-Z): 0.395 µM | IC50 (OCUB-M): 0.243 µM | IC50 (HCC1187): 0.425 µM

N[C@@H](CSC(c1ccccc1)(c1ccccc1)c1ccccc1)C(=O)O [S-TRITYL-L-CYSTEINE]
IC50 (UACC-257): > 5.12 µM | IC50 (EKVX): > 5.12 µM | IC50 (A3-KAW): 0.835 µM | IC50 (CP66-MEL): 3.44 µM | IC50 (LU-139): 2.91 µM | IC50 (NCI-H1304): > 5.12 µM | IC50 (TGW): > 5.12 µM | IC50 (IST-MEL1): > 5.12 µM | IC50 (NCI-H209): 4.75 µM | IC50 (HT-144): 0.31 µM | IC50 (SNU-5): > 5.12 µM | IC50 (COR-L88): > 5.12 µM | IC50 (ES1): 1.64 µM | IC50 (SCC-15): > 5.12 µM | IC50 (VA-ES-BJ): 0.804 µM | IC50 (NB6): 3.91 µM | IC50 (DOHH-2): 0.867 µM | IC50 (HEL): 2.75 µM | IC50 (DMS-79): > 5.12 µM | IC50 (HOP-62): 2.98 µM | IC50 (NTERA-2-cl-D1): > 5.12 µM | IC50 (KNS-81-FD): > 5.12 µM | IC50 (NB5): > 5.12 µM | IC50 (HCC2157): > 5.12 µM | IC50 (GB-1): > 5.12 µM | IC50 (TGBC1TKB): 2.42 µM | IC50 (D-247MG): > 5.12 µM | IC50 (ATN-1): 0.859 µM | IC50 (NCI-H747): > 5.12 µM | IC50 (SW 962): 1.14 µM | IC50 (SK-UT-1): 0.626 µM | IC50 (NCI-H69): 3.19 µM | IC50 (C8166): > 5.12 µM | IC50 (CTV-1): 0.788 µM | IC50 (MSTO-211H): > 5.12 µM | IC50 (EW-24): > 5.12 µM | IC50 (SK-N-FI): 3.16 µM | IC50 (NB69): 1.76 µM | IC50 (IA-LM): 1.39 µM | IC50 (AM-38): > 5.12 µM | IC50 (SK-N-DZ): 3.14 µM | IC50 (HD-MY-Z): 2.24 µM | IC50 (L-363): 1.73 µM | IC50 (MS-1): 2.47 µM | IC50 (NCI-H1092): > 5.12 µM | IC50 (OCUB-M): 0.817 µM | IC50 (NCI-H526): 4.45 µM | IC50 (HCC1187): > 5.12 µM

CCN(CC)CCNC(=O)c1c(C)[nH]c(/C=C2\C(=O)Nc3ccc(F)cc32)c1C [SUNITINIB]
IC50 (UACC-257): > 8 µM | IC50 (EKVX): > 8 µM | IC50 (A3-KAW): 1.63 µM | IC50 (CP66-MEL): > 8 µM | IC50 (LU-139): > 8 µM | IC50 (NCI-H1304): > 8 µM | IC50 (TGW): > 8 µM | IC50 (IST-MEL1): > 8 µM | IC50 (NCI-H209): > 8 µM | IC50 (HT-144): > 8 µM | IC50 (SNU-5): > 8 µM | IC50 (COR-L88): > 8 µM | IC50 (ES1): > 8 µM | IC50 (SCC-15): > 8 µM | IC50 (VA-ES-BJ): > 8 µM | IC50 (NB6): > 8 µM | IC50 (DOHH-2): 2.33 µM | IC50 (HEL): 3.48 µM | IC50 (DMS-79): > 8 µM | IC50 (HOP-62): 4.34 µM | IC50 (NTERA-2-cl-D1): > 8 µM | IC50 (KNS-81-FD): > 8 µM | IC50 (NB5): > 8 µM | IC50 (HCC2157): > 8 µM | IC50 (GB-1): 0.71 µM | IC50 (TGBC1TKB): > 8 µM | IC50 (D-247MG): > 8 µM | IC50 (ATN-1): 3.67 µM | IC50 (NCI-H747): > 8 µM | IC50 (SW 962): > 8 µM | IC50 (SK-UT-1): > 8 µM | IC50 (NCI-H69): > 8 µM | IC50 (C8166): > 8 µM | IC50 (CTV-1): 1.73 µM | IC50 (MSTO-211H): > 8 µM | IC50 (EW-24): > 8 µM | IC50 (SK-N-FI): > 8 µM | IC50 (NB69): > 8 µM | IC50 (IA-LM): > 8 µM | IC50 (AM-38): > 8 µM | IC50 (SK-N-DZ): 4.67 µM | IC50 (HD-MY-Z): 5.17 µM | IC50 (L-363): 4.81 µM | IC50 (MS-1): 3.84 µM | IC50 (NCI-H1092): > 8 µM | IC50 (OCUB-M): > 8 µM | IC50 (NCI-H526): > 8 µM | IC50 (HCC1187): > 8 µM
